# What was measured:
# Assay type in all cases: cell-based
# alpha2A receptor = target: T1, alpha2A receptor (Homo sapiens, UniProt P08913); experiment: Receptor Selection and Amplification Technology (RSAT) assay, alpha2A; settings: for EC50 / Alpha 2A EC50: RSAT, NIH-3T3 cells cotransfected with receptor and Gq/i5, not active = not active at concentrations less than 10 micromolar; for EC50: read-out: Alpha 2A EC50; for Alpha 2A IA (intrinsic activity): ratio of maximal effect of the drug to maximal effect of standard full agonist brimonidine (UK14304)
# T1 construct: expressed in transfected cells; host or cells: NIH-3T3
# T1 sequence (P08913 1-465): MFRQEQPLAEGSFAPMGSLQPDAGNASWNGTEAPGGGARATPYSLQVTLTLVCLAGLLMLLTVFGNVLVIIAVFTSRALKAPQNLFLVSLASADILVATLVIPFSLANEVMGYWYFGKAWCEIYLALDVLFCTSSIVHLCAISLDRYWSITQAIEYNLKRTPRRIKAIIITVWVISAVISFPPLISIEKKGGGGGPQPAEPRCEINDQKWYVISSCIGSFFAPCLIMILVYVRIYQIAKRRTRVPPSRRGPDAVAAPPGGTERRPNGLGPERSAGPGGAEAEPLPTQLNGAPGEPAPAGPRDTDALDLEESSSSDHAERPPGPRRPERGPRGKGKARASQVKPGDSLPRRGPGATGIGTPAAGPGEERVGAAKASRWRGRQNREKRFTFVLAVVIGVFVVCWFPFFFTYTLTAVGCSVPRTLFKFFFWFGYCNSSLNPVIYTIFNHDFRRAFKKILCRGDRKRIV
# Method: (§1) Receptor Selection and Amplification Technology (RSAT) Assay
# (§2) The RSAT assay measures a receptor-mediated loss of contact inhibition that results in selective proliferation of receptor-containing cells in a mixed population of confluent cells. The increase in cell number is assessed with an appropriate transfected marker gene such as β-galactosidase, the activity of which can be easily measured in a 96-well format. Receptors that activate the G protein, Gq, elicit this response. Alpha2 receptors, which normally couple to Gi, activate the RSAT response when coexpressed with a hybrid Gq protein that has a Gi receptor recognition domain, called Gq/i5.
# (§3) NIH-3T3 cells are plated at a density of 2×10^6 cells in 15 cm dishes and maintained in Dulbecco's modified Eagle's medium supplemented with 10% calf serum. One day later, cells are cotransfected by calcium phosphate precipitation with mammalian expression plasmids encoding p-SV-β-galactosidase (5-10 μg), receptor (1-2 μg) and G protein (1-2 μg). 40 μg salmon sperm DNA may also be included in the transfection mixture. Fresh media is added on the following day and 1-2 days later, cells are harvested and frozen in 50 assay aliquots. Cells are thawed and 100 μl added to 100 μl aliquots of various concentrations of drugs in triplicate in 96-well dishes. Incubations continue 72-96 hr at 37° C. After washing with phosphate-buffered saline, β-galactosidase enzyme activity is determined by adding 200 μl of the chromogenic substrate (consisting of 3.5 mM o-nitrophenyl-β-D-galactopyranoside and 0.5% nonidet P-40 in phosphate buffered saline), incubating overnight at 30° C. and measuring optical density at 420 nm. The absorbance is a measure of enzyme activity, which depends on cell number and reflects a receptor-mediated cell proliferation. The efficacy or intrinsic activity is calculated as a ratio of the maximal effect of the drug to the maximal effect of a standard full agonist for each receptor subtype. Brimonidine, also called UK14304, the chemical structure of which is shown below, is used as the standard agonist for the alpha2A, alpha2B and alpha2C receptors. The EC50 is the concentration at which the drug effect is half of its maximal effect.
# (§4) EC50 values are nanomolar. NA stands for “not active” at concentrations less than 10 micromolar. IA stands for “intrinsic activity.”
# alpha2B receptor = target: T2, alpha2B receptor (Homo sapiens, UniProt P18089); experiment: Receptor Selection and Amplification Technology (RSAT) assay, alpha2B; settings: for EC50: read-out: Alpha 2B EC50; for Alpha 2B IA (intrinsic activity): ratio of maximal effect of the drug to maximal effect of standard full agonist brimonidine (UK14304)
# T2 construct: expressed in transfected cells; host or cells: NIH-3T3
# T2 sequence (P18089 1-450): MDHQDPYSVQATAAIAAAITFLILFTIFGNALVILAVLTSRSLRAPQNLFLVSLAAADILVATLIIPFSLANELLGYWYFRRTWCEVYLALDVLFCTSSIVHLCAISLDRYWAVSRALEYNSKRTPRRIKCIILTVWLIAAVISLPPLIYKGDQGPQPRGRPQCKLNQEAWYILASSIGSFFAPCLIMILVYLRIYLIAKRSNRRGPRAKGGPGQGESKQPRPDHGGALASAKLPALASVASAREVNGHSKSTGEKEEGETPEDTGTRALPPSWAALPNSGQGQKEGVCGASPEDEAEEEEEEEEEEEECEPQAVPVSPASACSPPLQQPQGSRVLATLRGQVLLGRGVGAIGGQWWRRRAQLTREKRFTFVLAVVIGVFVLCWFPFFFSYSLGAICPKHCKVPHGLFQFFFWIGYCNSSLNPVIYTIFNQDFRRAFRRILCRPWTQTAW
# Method: as §1, §2, §3
# The results of the RSAT assay with several exemplary compounds of the invention are disclosed in Table 1 above together with the chemical formulas of these exemplary compounds. EC50 values are nanomolar. NA stands for “not active” at concentrations less than 10 micromolar. IA stands for “intrinsic activity.”
# alpha2C receptor = target: T3, alpha2C receptor (Homo sapiens, UniProt P18825); experiment: Receptor Selection and Amplification Technology (RSAT) assay, alpha2C; settings: for EC50 / Alpha 2C EC50: RSAT, NIH-3T3 cells cotransfected with receptor and Gq/i5, not active = not active at concentrations less than 10 micromolar; for EC50: read-out: Alpha 2C EC50; for Alpha 2C IA (intrinsic activity): ratio of maximal effect of the drug to maximal effect of standard full agonist brimonidine (UK14304)
# T3 construct: expressed in transfected cells; host or cells: NIH-3T3
# T3 sequence (P18825 1-462): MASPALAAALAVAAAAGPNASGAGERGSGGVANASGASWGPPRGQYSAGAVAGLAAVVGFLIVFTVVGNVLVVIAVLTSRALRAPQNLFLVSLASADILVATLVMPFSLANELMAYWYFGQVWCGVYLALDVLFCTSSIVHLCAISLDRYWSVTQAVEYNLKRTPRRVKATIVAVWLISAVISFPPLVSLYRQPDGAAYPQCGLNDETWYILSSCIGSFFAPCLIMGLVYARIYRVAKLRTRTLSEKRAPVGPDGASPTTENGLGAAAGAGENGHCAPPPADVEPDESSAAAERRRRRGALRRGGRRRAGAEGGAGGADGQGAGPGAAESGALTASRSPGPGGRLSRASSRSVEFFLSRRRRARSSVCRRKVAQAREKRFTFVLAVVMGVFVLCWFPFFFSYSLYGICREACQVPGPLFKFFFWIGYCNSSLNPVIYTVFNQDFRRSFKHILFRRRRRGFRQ
# Method: as §1, §2, §3, §4
# [1] = RSAT, NIH-3T3 cells cotransfected with receptor and Gq/i5, not active = not active at concentrations less than 10 micromolar
SMILES,EC50 (alpha2A receptor),Alpha 2A IA (intrinsic activity) (alpha2A receptor),EC50 (alpha2B receptor; [1]),Alpha 2B IA (intrinsic activity) (alpha2B receptor),EC50 (alpha2C receptor),Alpha 2C IA (intrinsic activity) (alpha2C receptor),Alpha 2A EC50 (alpha2A receptor),Alpha 2C EC50 (alpha2C receptor),Alpha 2B EC50 (alpha2B receptor; [1])
CC1=C(C)C(NC(=O)NCCF)CC1 (centres unmarked),586 nM,0.36,37 nM,1.07,214 nM,0.64,,,
COc1cccc2c1CCC2NC(=O)NCCF (centres unmarked),2070 nM,0.48,121 nM,0.72,1110 nM,0.59,,,
Cc1ccc2c(c1C)C(NC(=O)NCCF)CC2 (centres unmarked),,,649 nM,0.64,,,not active,not active,
Nc1cccc2c1CCC2NC(=O)NCCF (centres unmarked),429 nM,0.48,36.6 nM,1.0,1300 nM,0.54,,,
O=C(NCCF)NC1C=C(CO)CCC1 (centres unmarked),,,1260 nM,0.58,2600 nM,0.4,not active,,
O=C(NCCF)NC1Cc2cccc(Cl)c2C1 (centres unmarked),,,15.4 nM,0.67,12.5 nM,0.44,not active,,
O=C(NCCF)NC1CCCc2c(Cl)cccc21 (centres unmarked),168 nM,0.42,29 nM,1.11,310 nM,0.72,,,
O=C(NCCF)NC1CCc2ccccc21 (centres unmarked),,,6.3 nM,1.21,192 nM,0.64,not active,,
CCc1cccc2c1CCCC2NC(=O)NCCF (centres unmarked),450 nM,0.32,158 nM,0.93,904 nM,0.34,,,
O=C(NCCF)NCC1CCc2ccccc21 (centres unmarked),,,380 nM,0.76,> 2000 nM,0.38,not active,,
Cc1cc(C)c2c(c1)C(NC(=O)NCCF)CCC2 (centres unmarked),109 nM,0.49,27 nM,0.91,391 nM,0.58,,,
O=C(NCCF)NC1CCc2ccc(Cl)c(Cl)c21 (centres unmarked),,,72.4 nM,1.0,29.5 nM,0.43,not active,,
O=C(NCCF)NC1CCc2ccccc2C1 (centres unmarked),,,226 nM,0.63,,,not active,not active,
CCC1=CC(NC(=O)NCCF)CCC1 (centres unmarked),,,,,346 nM,0.32,not active,,not active
O=C(NCCF)NC1CCc2cccnc21 (centres unmarked),,,3080 nM,0.81,,,not active,not active,
CC1CC(NC(=O)NCCF)c2ccccc21 (centres unmarked),,,10.9 nM,0.96,168 nM,0.43,not active,,
O=C(NCCF)NC1CCc2ccc(F)cc21 (centres unmarked),,,20 nM,0.54,60 nM,0.47,not active,,
O=C(NCCF)N[C@H]1CCc2ccccc21,,,1.6 nM,1.0,17.5 nM,0.47,not active,,
COc1cccc2c1CCCC2NC(=O)NCCF (centres unmarked),2350 nM,0.37,291 nM,0.84,872 nM,0.51,,,
O=C(NCCF)NC1CCc2ccc(Cl)cc21 (centres unmarked),343 nM,0.63,12 nM,0.99,86 nM,0.7,,,
O=C(NCCF)NC1CCc2c(O)cccc21 (centres unmarked),186 nM,0.53,9.6 nM,0.96,73 nM,0.73,,,

# Reference: patent publication US7598417B2, “Substituted fluoroethyl ureas as alpha 2 adrenergic agents” (Allergan, Inc., priority 2007, dated 2009)
